Results: ChEMBL document CHEMBL5303573, “Mapping human microbiome drug metabolism by gut bacteria and their genes” (Nature, 2019)

How the values were obtained:
[1] = parabacteroides distasonis, 12 h, 2 µM
Description: The drug is tested on Parabacteroides distasonis strain: ATCC8503 for biotransformation. The drug concentrations were measured before and after a 12-h incubation by liquid-chromatography-coupled mass spectrometry (LC–MS)

[2] = bifidobacterium adolescentis, 12 h, 2 µM
Description: The drug is tested on Bifidobacterium adolescentis strain: ATCC 15703 for biotransformation. The drug concentrations were measured before and after a 12-h incubation by liquid-chromatography-coupled mass spectrometry (LC–MS)

[3] = The drug is tested on Alistipes indistinctus strain: DSM22520 for biotransformation. The drug concentrations were measured before and after a 12-h incubation by liquid-chromatography-coupled mass spectrometry (LC–MS); details: 2 µM
[4] = bacteroides eggerthii, 12 h, 2 µM
Description: The drug is tested on Bacteroides eggerthii strain: DSM20697 for biotransformation. The drug concentrations were measured before and after a 12-h incubation by liquid-chromatography-coupled mass spectrometry (LC–MS)

[5] = The drug is tested on Dorea formicigenerans strain: ATCC27755 for biotransformation. The drug concentrations were measured before and after a 12-h incubation by liquid-chromatography-coupled mass spectrometry (LC–MS); details: 2 µM
[6] = The drug is tested on Bacteroides sp. WH2 strain: WH2 for biotransformation. The drug concentrations were measured before and after a 12-h incubation by liquid-chromatography-coupled mass spectrometry (LC–MS); details: bacteroides sp. wh2, 12 h, 2 µM
[7] = The drug is tested on Blautia hansenii strain: DSM20583 for biotransformation. The drug concentrations were measured before and after a 12-h incubation by liquid-chromatography-coupled mass spectrometry (LC–MS); details: 2 µM
[8] = bacteroides stercoris, 12 h, 2 µM
Description: The drug is tested on Bacteroides stercoris strain: ATCC43183 for biotransformation. The drug concentrations were measured before and after a 12-h incubation by liquid-chromatography-coupled mass spectrometry (LC–MS)

[9] = The drug is tested on Collinsella aerofaciens strain: ATCC25986 for biotransformation. The drug concentrations were measured before and after a 12-h incubation by liquid-chromatography-coupled mass spectrometry (LC–MS); details: 2 µM
[10] = The drug is tested on Eubacterium hallii strain: DSM3353 for biotransformation. The drug concentrations were measured before and after a 12-h incubation by liquid-chromatography-coupled mass spectrometry (LC–MS); details: anaerobutyricum hallii, 2 µM
[11] = The drug is tested on Bacteroides finegoldii strain: DSM17565 for biotransformation. The drug concentrations were measured before and after a 12-h incubation by liquid-chromatography-coupled mass spectrometry (LC–MS); details: 2 µM
[12] = The drug is tested on Bacteroides fragilis strain: ATCC43859 for biotransformation. The drug concentrations were measured before and after a 12-h incubation by liquid-chromatography-coupled mass spectrometry (LC–MS); details: 2 µM
[13] = The drug is tested on Bacteroides dorei strain: DSM17855 for biotransformation. The drug concentrations were measured before and after a 12-h incubation by liquid-chromatography-coupled mass spectrometry (LC–MS); details: phocaeicola dorei, 2 µM
[14] = The drug is tested on Bacteroides coprophilus strain: DSM18228 for biotransformation. The drug concentrations were measured before and after a 12-h incubation by liquid-chromatography-coupled mass spectrometry (LC–MS); details: 2 µM
[15] = The drug is tested on Clostridium ramosum strain: DSM1402 for biotransformation. The drug concentrations were measured before and after a 12-h incubation by liquid-chromatography-coupled mass spectrometry (LC–MS); details: thomasclavelia ramosa, 2 µM
[16] = enterocloster bolteae, 12 h, 2 µM
Description: The drug is tested on Clostridium bolteae strain: ATCCBAA-613 for biotransformation. The drug concentrations were measured before and after a 12-h incubation by liquid-chromatography-coupled mass spectrometry (LC–MS)

[17] = parabacteroides johnsonii, 12 h, 2 µM
Description: The drug is tested on Parabacteroides johnsonii strain: DSM18315 for biotransformation. The drug concentrations were measured before and after a 12-h incubation by liquid-chromatography-coupled mass spectrometry (LC–MS)

[18] = The drug is tested on Bacteroides caccae strain: ATCC43185 for biotransformation. The drug concentrations were measured before and after a 12-h incubation by liquid-chromatography-coupled mass spectrometry (LC–MS); details: 2 µM
[19] = bacteroides fragilis, 12 h, 2 µM
Description: The drug is tested on Bacteroides fragilis strain: 3397 (T10) for biotransformation. The drug concentrations were measured before and after a 12-h incubation by liquid-chromatography-coupled mass spectrometry (LC–MS)

[20] = The drug is tested on Enterobacter cancerogenus strain: ATCC35316 for biotransformation. The drug concentrations were measured before and after a 12-h incubation by liquid-chromatography-coupled mass spectrometry (LC–MS); details: 2 µM

| SMILES | Bacterial Biotransformation [1] | Bacterial Biotransformation [2] | Bacterial Biotransformation [3] | Bacterial Biotransformation [4] | Bacterial Biotransformation [5] | Bacterial Biotransformation [6] | Bacterial Biotransformation [7] | Bacterial Biotransformation [8] | Bacterial Biotransformation [9] | Bacterial Biotransformation [10] | Bacterial Biotransformation [11] | Bacterial Biotransformation [12] | Bacterial Biotransformation [13] | Bacterial Biotransformation [14] | Bacterial Biotransformation [15] | Bacterial Biotransformation [16] | Bacterial Biotransformation [17] | Bacterial Biotransformation [18] | Bacterial Biotransformation [19] | Bacterial Biotransformation [20] |
| --- | --- | --- | --- | --- | --- | --- | --- | --- | --- | --- | --- | --- | --- | --- | --- | --- | --- | --- | --- | --- |
| CCC(=O)NCC[C@@H]1CCc2ccc3c(c21)CCO3 [RAMELTEON] | Compound metabolized | Compound NOT metabolized | Compound NOT metabolized | Compound metabolized | Compound NOT metabolized | Compound NOT metabolized | Compound metabolized | Compound metabolized | Compound NOT metabolized | Compound NOT metabolized | Compound NOT metabolized | Compound metabolized | Compound metabolized | Compound NOT metabolized | Compound NOT metabolized | Compound NOT metabolized | Compound NOT metabolized |  |  |  |
| COC(=O)C(c1ccccc1)C1CCCCN1 (stereo not given) [METHYLPHENIDATE] |  |  | Compound NOT metabolized | Compound NOT metabolized |  | Compound NOT metabolized | Compound metabolized | Compound NOT metabolized | Compound NOT metabolized | Compound NOT metabolized | Compound NOT metabolized | Compound NOT metabolized | Compound NOT metabolized |  |  | Compound NOT metabolized | Compound metabolized | Compound NOT metabolized | Compound NOT metabolized | Compound NOT metabolized |
| CCc1nc(N)nc(N)c1-c1ccc(Cl)cc1 [PYRIMETHAMINE] | Compound NOT metabolized | Compound NOT metabolized | Compound NOT metabolized | Compound NOT metabolized | Compound NOT metabolized | Compound NOT metabolized | Compound NOT metabolized | Compound NOT metabolized | Compound NOT metabolized | Compound NOT metabolized | Compound NOT metabolized | Compound NOT metabolized | Compound NOT metabolized | Compound NOT metabolized |  | Compound NOT metabolized | Compound NOT metabolized | Compound NOT metabolized | Compound NOT metabolized | Compound NOT metabolized |
| Cc1cc(C)cc(OCC2CNC(=O)O2)c1 (stereo not given) [METAXALONE] | Compound metabolized | Compound NOT metabolized |  |  | Compound NOT metabolized | Compound NOT metabolized | Compound metabolized |  | Compound NOT metabolized | Compound NOT metabolized |  | Compound metabolized | Compound metabolized |  |  | Compound NOT metabolized |  | Compound NOT metabolized |  |  |
| COc1ccc(/C=C/C(=O)Nc2ccccc2C(=O)O)cc1OC | Compound NOT metabolized | Compound NOT metabolized |  | Compound NOT metabolized | Compound NOT metabolized | Compound metabolized | Compound NOT metabolized | Compound NOT metabolized | Compound NOT metabolized | Compound NOT metabolized | Compound metabolized | Compound NOT metabolized | Compound NOT metabolized | Compound NOT metabolized | Compound NOT metabolized | Compound NOT metabolized | Compound NOT metabolized |  | Compound NOT metabolized | Compound NOT metabolized |
| CC(=O)O[C@H]1C(=O)[C@@]2(C)[C@H]([C@H](OC(=O)c3ccccc3)[C@]3(O)C[C@H](OC(=O)[C@H](O)[C@@H](NC(=O)c4ccccc4)c4ccccc4)C(C)=C1C3(C)C)[C@]1(OC(C)=O)CO[C@@H]1C[C@@H]2O [PACLITAXEL] | Compound NOT metabolized | Compound NOT metabolized | Compound NOT metabolized | Compound NOT metabolized | Compound NOT metabolized | Compound NOT metabolized |  | Compound NOT metabolized | Compound NOT metabolized | Compound NOT metabolized | Compound NOT metabolized | Compound NOT metabolized |  | Compound NOT metabolized | Compound NOT metabolized | Compound NOT metabolized | Compound NOT metabolized | Compound NOT metabolized | Compound NOT metabolized | Compound NOT metabolized |
| CCCCC(=O)O[C@]1(C(=O)CO)[C@@H](C)C[C@H]2[C@@H]3CCC4=CC(=O)C=C[C@]4(C)[C@@]3(F)[C@@H](O)C[C@@]21C [BETAMETHASONE VALERATE] | Compound metabolized |  |  | Compound metabolized | Compound NOT metabolized | Compound NOT metabolized | Compound metabolized | Compound metabolized | Compound NOT metabolized |  | Compound metabolized |  | Compound metabolized |  | Compound NOT metabolized | Compound metabolized | Compound metabolized |  |  | Compound NOT metabolized |
| O=C(NC(Cc1cc(=O)[nH]c2ccccc12)C(=O)O)c1ccc(Cl)cc1 (stereo not given) [REBAMIPIDE] | Compound NOT metabolized | Compound NOT metabolized | Compound NOT metabolized | Compound NOT metabolized | Compound NOT metabolized |  | Compound NOT metabolized | Compound NOT metabolized | Compound NOT metabolized | Compound NOT metabolized | Compound NOT metabolized |  | Compound metabolized | Compound NOT metabolized | Compound NOT metabolized | Compound NOT metabolized | Compound NOT metabolized | Compound NOT metabolized | Compound NOT metabolized | Compound NOT metabolized |
| CN(C)C(=O)C(CCN1CCC(O)(c2ccc(Cl)cc2)CC1)(c1ccccc1)c1ccccc1 [LOPERAMIDE] | Compound metabolized | Compound NOT metabolized | Compound metabolized | Compound metabolized | Compound NOT metabolized | Compound NOT metabolized | Compound metabolized | Compound metabolized | Compound NOT metabolized | Compound NOT metabolized |  |  | Compound metabolized | Compound metabolized | Compound NOT metabolized | Compound NOT metabolized |  | Compound NOT metabolized | Compound metabolized |  |
